In PubChem BioAssay (NCI):
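Here, GI50 denotes the concentration required for 50% inhibition of growth. Definition used: TGI = concentration required for complete inhibition of growth.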

How the values were obtained:
Test in all cases: DTP human tumour cell line panel, 384-well format
SF-268 CNS = test system: SF-268 CNS
KM12 colon = test system: KM12 colon
HT29 colon = test system: HT29 colon
HOP-62 NSCLC = test system: HOP-62 NSCLC
A549 NSCLC = test system: A549 NSCLC
PC-3 prostate = test system: PC-3 prostate
SK-MEL-5 melanoma = test system: SK-MEL-5 melanoma
COLO 205 colon = test system: COLO 205 colon
SW-620 colon = test system: SW-620 colon
CAKI-1 renal = test system: CAKI-1 renal
IGROV1 ovarian = test system: IGROV1 ovarian
NCI-H226 lung = test system: NCI-H226 lung
SK-OV-3 ovarian = test system: SK-OV-3 ovarian
UACC-257 melanoma = test system: UACC-257 melanoma
SR leukemia = test system: SR leukemia
UO-31 renal = test system: UO-31 renal
BT-549 breast = test system: BT-549 breast
SK-MEL-28 melanoma = test system: SK-MEL-28 melanoma
MOLT-4 leukemia = test system: MOLT-4 leukemia
SF-539 CNS = test system: SF-539 CNS
U251 glioblastoma = test system: U251 glioblastoma
A498 renal = test system: A498 renal
UACC-62 melanoma = test system: UACC-62 melanoma
HOP-92 NSCLC = test system: HOP-92 NSCLC
MALME-3M melanoma = test system: MALME-3M melanoma
ACHN renal = test system: ACHN renal
HCT-15 colon = test system: HCT-15 colon
HL-60(TB) leukemia = test system: HL-60(TB) leukemia
MDA-MB-468 breast = test system: MDA-MB-468 breast
MDA-MB-435 melanoma = test system: MDA-MB-435 melanoma
MDA-MB-231 breast = test system: MDA-MB-231 breast
DU-145 prostate = test system: DU-145 prostate
NCI-H522 lung = test system: NCI-H522 lung
OVCAR-4 ovarian = test system: OVCAR-4 ovarian
786-0 renal = test system: 786-0 renal
TK-10 renal = test system: TK-10 renal
EKVX NSCLC = test system: EKVX NSCLC
K-562 leukemia = test system: K-562 leukemia
OVCAR-8 ovarian = test system: OVCAR-8 ovarian
SF-295 CNS = test system: SF-295 CNS
OVCAR-5 ovarian = test system: OVCAR-5 ovarian
SK-MEL-2 melanoma = test system: SK-MEL-2 melanoma
HCT-116 colon = test system: HCT-116 colon
SN12C renal = test system: SN12C renal
M14 melanoma = test system: M14 melanoma
OVCAR-3 ovarian = test system: OVCAR-3 ovarian
NCI-H322M lung = test system: NCI-H322M lung
T-47D breast = test system: T-47D breast
SNB-19 CNS = test system: SNB-19 CNS
NCI-H23 lung = test system: NCI-H23 lung
SNB-75 CNS = test system: SNB-75 CNS
MCF7 breast = test system: MCF7 breast
HS 578T breast = test system: HS 578T breast

CNC(=O)c1cc2c(Oc3ccc(NC(=O)C4(C(=O)Nc5ccc(F)cc5)CC4)cc3)ccnc2cc1OC
GI50 (SF-268 CNS): 3.72 µM | TGI (SF-268 CNS): > 100 µM | GI50 (KM12 colon): 4.09 µM | TGI (KM12 colon): 74.6 µM | GI50 (HT29 colon): 2.96 µM | TGI (HT29 colon): 13.3 µM | GI50 (HOP-62 NSCLC): 3.47 µM | TGI (HOP-62 NSCLC): 24.3 µM | GI50 (A549 NSCLC): 3.1 µM | TGI (A549 NSCLC): 11.2 µM | GI50 (PC-3 prostate): 3.94 µM | TGI (PC-3 prostate): > 100 µM | GI50 (SK-MEL-5 melanoma): 1.43 µM | TGI (SK-MEL-5 melanoma): 4.45 µM | GI50 (COLO 205 colon): 3.38 µM | TGI (COLO 205 colon): 14.4 µM | GI50 (SW-620 colon): 2.72 µM | TGI (SW-620 colon): 10.4 µM | GI50 (CAKI-1 renal): 1.61 µM | TGI (CAKI-1 renal): 3.42 µM | GI50 (IGROV1 ovarian): 1.48 µM | TGI (IGROV1 ovarian): 3.41 µM | GI50 (NCI-H226 lung): 1.63 µM | TGI (NCI-H226 lung): 6.07 µM | GI50 (SK-OV-3 ovarian): 1.83 µM | TGI (SK-OV-3 ovarian): 5.63 µM | GI50 (UACC-257 melanoma): 2.35 µM | TGI (UACC-257 melanoma): 20.5 µM | GI50 (SR leukemia): 1.64 µM | TGI (SR leukemia): 3.08 µM | GI50 (UO-31 renal): 1.99 µM | TGI (UO-31 renal): 4.9 µM | GI50 (BT-549 breast): 2.49 µM | TGI (BT-549 breast): 6.88 µM | GI50 (SK-MEL-28 melanoma): 2.9 µM | TGI (SK-MEL-28 melanoma): > 100 µM | GI50 (MOLT-4 leukemia): 1.4 µM | TGI (MOLT-4 leukemia): 2.72 µM | GI50 (SF-539 CNS): 0.18 µM | TGI (SF-539 CNS): 3.23 µM | GI50 (U251 glioblastoma): 4.56 µM | TGI (U251 glioblastoma): > 100 µM | GI50 (A498 renal): 2.87 µM | TGI (A498 renal): 9.79 µM | GI50 (UACC-62 melanoma): 1.86 µM | TGI (UACC-62 melanoma): 5.52 µM | GI50 (HOP-92 NSCLC): 1.37 µM | TGI (HOP-92 NSCLC): 5.99 µM | GI50 (MALME-3M melanoma): 3.5 µM | TGI (MALME-3M melanoma): 17.1 µM | GI50 (ACHN renal): 1.67 µM | TGI (ACHN renal): 5.7 µM | GI50 (HCT-15 colon): 2.96 µM | TGI (HCT-15 colon): 12.3 µM | GI50 (HL-60(TB) leukemia): 2.13 µM | TGI (HL-60(TB) leukemia): 4.05 µM | GI50 (MDA-MB-468 breast): 1.57 µM | TGI (MDA-MB-468 breast): 4.59 µM | GI50 (MDA-MB-435 melanoma): 1.63 µM | TGI (MDA-MB-435 melanoma): 3.47 µM | GI50 (MDA-MB-231 breast): 3.33 µM | TGI (MDA-MB-231 breast): > 100 µM | GI50 (DU-145 prostate): 4.12 µM | TGI (DU-145 prostate): > 100 µM | GI50 (NCI-H522 lung): 1.96 µM | TGI (NCI-H522 lung): 5.53 µM | GI50 (OVCAR-4 ovarian): 3.87 µM | TGI (OVCAR-4 ovarian): > 100 µM | GI50 ([…]-0 renal): 3.09 µM | TGI (786-0 renal): 12.5 µM | GI50 (TK-10 renal): 2.85 µM | TGI (TK-10 renal): 14.1 µM | GI50 (EKVX NSCLC): 1.68 µM | TGI (EKVX NSCLC): 5.23 µM | GI50 (K-562 leukemia): 0.261 µM | TGI (K-562 leukemia): 1.29 µM | GI50 (OVCAR-8 ovarian): 3.59 µM | TGI (OVCAR-8 ovarian): > 100 µM | GI50 (SF-295 CNS): 0.471 µM | TGI (SF-295 CNS): 8.18 µM | GI50 (OVCAR-5 ovarian): 3.35 µM | TGI (OVCAR-5 ovarian): > 100 µM | GI50 (SK-MEL-2 melanoma): 2.19 µM | TGI (SK-MEL-2 melanoma): 5.67 µM | GI50 (HCT-116 colon): 3.17 µM | TGI (HCT-116 colon): 19.9 µM | GI50 (SN12C renal): 0.507 µM | TGI (SN12C renal): 8.21 µM | GI50 (M14 melanoma): 3.36 µM | TGI (M14 melanoma): 31.5 µM | GI50 (OVCAR-3 ovarian): 2.56 µM | TGI (OVCAR-3 ovarian): 12.4 µM | GI50 (NCI-H322M lung): 2.64 µM | TGI (NCI-H322M lung): 8.79 µM | GI50 (T-47D breast): 1.81 µM | TGI (T-47D breast): 9.37 µM | GI50 (SNB-19 CNS): 16.2 µM | TGI (SNB-19 CNS): > 100 µM | GI50 (NCI-H23 lung): 0.546 µM | TGI (NCI-H23 lung): 4.73 µM | GI50 (SNB-75 CNS): 1.08 µM | TGI (SNB-75 CNS): 3.01 µM | GI50 (MCF7 breast): 1.72 µM | TGI (MCF7 breast): 10.4 µM | GI50 (HS 578T breast): 0.601 µM | TGI (HS 578T breast): 2.73 µM
